Article PMC5341405, “Lapachol, a compound targeting pyrimidine metabolism, ameliorates experimental autoimmune arthritis” (Arthritis Research & Therapy, 2017)

Tested on: collagen-induced arthritis (CIA) in DBA1/J mice
Assay: Collagen-induced arthritis (CIA)
Format: in vivo
Method: Male DBA/1 J mice were injected i.d. at the base of the tail with 200 μg bovine type II collagen (CII; a gift from Dr. David D. Brand, University of Tennessee Health Science Center) emulsified in Freund’s complete adjuvant (CFA) on day 0. Mice were boosted i.d. with CII (200 μg emulsified in Freund’s incomplete adjuvant (IFA)) on day 21. Mice were monitored daily for signs of arthritis. Scores were assigned based on erythema, swelling, or ankylosis present in each paw on a scale of 0 to 3, giving a maximum score of 12 per mouse. After arthritis induction, mice were treated orally with LAP (3 mg/kg and 10 mg/kg) or LEF (3 mg/kg) or saline daily. The clinical score was addressed every day after collagen boost. All mice were euthanized for histologic assessment of the hind limbs 4 weeks after the boost.
Femur-tibial joints were collected 4 weeks after CII boost, fixed in 4% (vol/vol) buffered formalin and decalcified in 10% EDTA for 2–3 weeks. The tissues were then trimmed, dehydrated in ethanol, and embedded in paraffin for the preparation of the slides. Histological assessment was carried out following routine staining. Joint sections were stained with hematoxylin and eosin (H&E) to analyze synovitis (inflammatory cell influx and synovial hyperplasia) or Safranin-O to visualize proteoglycan depletion and cartilage destruction. The severity of the joint damage was scored according to the criteria described by Wang et al.: 0 = no destruction; 1 = minimal erosion; 2 = slight to moderate erosion in a limited area; 3 = more extensive erosion; 4 = general destruction.
Interleukin (IL)-17 and interferon (IFN)-γ cytokines were measured by enzyme-linked immunosorbent assay (ELISA) from hind paw homogenate of an individual mouse using antibodies according to the manufacturer’s instructions (R&D Systems, Minneapolis, MN, USA). The results were expressed as pg of cytokine/mg of tissue.
Myeloperoxidase (MPO) activity in tissue homogenates was used as an index of neutrophil infiltration into paws from CIA mice as previously described.

For `CC(C)=CCC1=C(O)C(=O)c2ccccc2C1=O` [LAP, 2-hydroxy-3-(3methyl-2-butenyl)-1,4-naphthoquinone], the “severity of arthritis (clinical score and number of affected paws)” value (3 mg/kg and 10 mg/kg orally daily, both doses) was “markedly attenuated the severity of arthritis”, the “IL-17A levels in hind paws” value (dose of 10 mg/kg orally daily, 4 weeks after boost, ELISA) was “significant reduction in IL-17A levels” and the “MPO activity in hind paws (neutrophil infiltration)” value (orally daily, 4 weeks after boost, vs vehicle-treated CIA mice) was “reduced MPO activity”. The “histopathological features of arthritis severity (H&E, Safranin-O, knee joint)” value (orally daily, 4 weeks after boost, vs vehicle-treated group) was “markedly reduced all histopathological features of arthritis severity”.
